Measurements from the NIST ThermoML archive (doi:10.1021/acs.jced.8b00908).
Numbers after ± are expanded uncertainties.

Conditions: Liquid, Ebulliometric method (Recirculating still)

## C=CCO [2-propenol]
369.94 K
  vapor or sublimation pressure: 101.3 ± 3.5 kPa

## CCOC(C)=O [ethyl acetate]
350.28 K
  vapor or sublimation pressure: 101.3 ± 3.5 kPa

## CCC(=O)OC [methyl propanoate]
352.47 K
  vapor or sublimation pressure: 101.3 ± 3.5 kPa

## ClC(Cl)Cl [trichloromethane]
334.12 K
  vapor or sublimation pressure: 101.3 ± 3.5 kPa
